What all share (format): cell-based
What all share (conditions): Table 7; cAMP formation
(Cyclic AMP is a second messenger, typically raised through Gs and lowered through Gi signalling.)

Experiment [1] has as its target T1, human GLP-1 receptor (hGLP-1 R) (Homo sapiens, UniProt P43220).
T1 construct: expressed in transfected cells
The experiment is described as follows: cAMP response of HEK-293 cells stably expressing human GLP-1 receptor (HTRF). The method in brief: (§1)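 cAMP accumulation was read by homogeneous time-resolved fluorescence after 30 min compound exposure at room temperature. Stable receptor-expressing HEK-293 cells, 400000 cells/ml, were used in HEPES-buffered HBSS containing 0.1% BSA and the phosphodiesterase inhibitor IBMX (2 mM).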
For orientation: In TR-FRET formats the signal depends on donor and acceptor labels being close together.

In experiment [2] the target is T2, human GIP receptor (hGIP R) (Homo sapiens, UniProt P48546).
T2 construct: expressed in transfected cells
T2 sequence (P48546 22-466): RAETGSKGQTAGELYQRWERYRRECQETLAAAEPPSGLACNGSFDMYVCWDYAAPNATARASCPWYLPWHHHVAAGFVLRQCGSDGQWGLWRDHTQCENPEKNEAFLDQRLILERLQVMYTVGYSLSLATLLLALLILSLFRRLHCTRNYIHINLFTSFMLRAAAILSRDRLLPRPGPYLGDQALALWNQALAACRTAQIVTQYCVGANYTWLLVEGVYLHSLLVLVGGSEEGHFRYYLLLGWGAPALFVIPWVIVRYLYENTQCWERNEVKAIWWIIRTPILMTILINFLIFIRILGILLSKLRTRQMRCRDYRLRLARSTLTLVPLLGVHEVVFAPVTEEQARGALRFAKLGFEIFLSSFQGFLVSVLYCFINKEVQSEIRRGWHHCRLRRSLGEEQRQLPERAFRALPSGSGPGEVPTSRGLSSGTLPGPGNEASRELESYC
The experiment is described as follows: cAMP response of HEK-293 cells stably expressing human GIP receptor (HTRF). The method in brief:
as §1

Experiment [3] addresses T3, human glucagon receptor (hGLUC R) (Homo sapiens, UniProt P47871).
T3 construct: expressed in transfected cells
The experiment is described as follows: cAMP response of HEK-293 cells stably expressing human glucagon receptor (HTRF). The method, boiled down: as §1

pEC50: −log10 of the molar value. *1 amine or outer side, *2 acyl side, *3 side chain or, on linkers, in order; H or OH if unused. Where a SMILES comes first, the peptide text is derived from it. Side-chain parts run from the residue outwards. [ ]: non-standard residue; d: D form. The star is where a group is joined. γGlu = O=C(O)[C@H](CCC(=O)[*:2])N[*:1]; Palmitoyl = CCCCCCCCCCCCCCCC(=O)*; Aib = CC(C)(N)C(=O)O

T1 sequence (P43220 24-463): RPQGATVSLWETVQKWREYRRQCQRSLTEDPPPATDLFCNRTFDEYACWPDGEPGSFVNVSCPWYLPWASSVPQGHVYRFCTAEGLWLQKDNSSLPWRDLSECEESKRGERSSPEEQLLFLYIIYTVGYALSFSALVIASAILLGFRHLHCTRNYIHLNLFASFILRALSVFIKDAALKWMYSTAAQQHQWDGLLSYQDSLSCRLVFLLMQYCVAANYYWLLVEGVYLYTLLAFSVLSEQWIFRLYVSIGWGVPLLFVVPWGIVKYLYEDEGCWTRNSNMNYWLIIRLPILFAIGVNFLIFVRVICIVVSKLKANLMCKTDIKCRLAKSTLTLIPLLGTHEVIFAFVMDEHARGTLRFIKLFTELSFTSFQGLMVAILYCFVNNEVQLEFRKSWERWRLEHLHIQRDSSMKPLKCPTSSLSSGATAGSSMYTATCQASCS
T3 sequence (P47871 26-477): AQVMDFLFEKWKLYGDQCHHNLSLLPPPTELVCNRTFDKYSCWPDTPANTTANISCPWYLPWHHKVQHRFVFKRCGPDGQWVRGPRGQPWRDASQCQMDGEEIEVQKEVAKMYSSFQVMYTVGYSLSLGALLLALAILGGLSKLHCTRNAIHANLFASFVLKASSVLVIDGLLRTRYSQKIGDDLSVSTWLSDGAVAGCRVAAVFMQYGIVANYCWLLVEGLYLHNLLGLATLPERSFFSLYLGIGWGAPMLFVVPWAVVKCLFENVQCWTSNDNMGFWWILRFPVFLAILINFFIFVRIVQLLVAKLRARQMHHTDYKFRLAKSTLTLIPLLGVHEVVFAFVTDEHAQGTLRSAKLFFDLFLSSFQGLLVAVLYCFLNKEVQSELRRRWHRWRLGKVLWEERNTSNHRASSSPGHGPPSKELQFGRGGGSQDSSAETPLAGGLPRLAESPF

Consider `CCCCCCCCCCCCCCCC(=O)N[C@@H](CCC(=O)NCCCC[C@H](NC(=O)[C@H](CCC(N)=O)NC(=O)[C@@H](NC(=O)[C@H](CO)NC(=O)[C@H](CC(C)C)NC(=O)[C@H](CC(=O)O)NC(=O)[C@H](CO)NC(=O)[C@@H](NC(=O)[C@H](Cc1ccccc1)NC(=O)[C@@H](NC(=O)CNC(=O)[C@H](CCC(N)=O)NC(=O)C(C)(C)NC(=O)[C@@H](N)Cc1ccc(O)cc1)[C@@H](C)O)[C@@H](C)O)[C@@H](C)CC)C(=O)N[C@@H](CCC(=O)O)C(=O)N[C@@H](CCC(N)=O)C(=O)N[C@@H](CCCNC(=N)N)C(=O)N[C@@H](C)C(=O)N[C@@H](C)C(=O)NC(C)(C)C(=O)N[C@@H](CCC(=O)O)C(=O)N[C@@H](Cc1ccccc1)C(=O)N[C@H](C(=O)N[C@@H](CCC(=O)O)C(=O)N[C@@H](Cc1c[nH]c2ccccc12)C(=O)N[C@@H](CC(C)C)C(=O)N[C@@H](CCCCN)C(=O)N[C@@H](CC(N)=O)C(=O)N[C@H](C(=O)NCC(=O)N1CCC[C@H]1C(=O)N[C@@H](CO)C(=O)N[C@@H](CO)C(=O)NCC(=O)N[C@@H](C)C(=O)N1CCC[C@H]1C(=O)N1CCC[C@H]1C(=O)N1CCC[C@H]1C(=O)N[C@@H](CO)C(N)=O)[C@@H](C)O)[C@@H](C)CC)C(=O)O` [SEQ ID NO: 15, Y-Aib-Q-G-T-F-T-S-D-L-S-I-Q-K(yE-x53)-E-Q- R-A-A-Aib-E-F-I-E-W-L-K-N-T-G-P-S-S-G-A-P-P-P-S-NH2] (H-Y[Aib]QGTFTSDLSIQK([γGlu-Palmitoyl])EQRAA[Aib]EFIEWLKNTGPSSGAPPPS-NH2), for which the values for the pEC50 in experiment [1], in experiment [2] and in experiment [3] were 11.16, 10.94 and 10.27, respectively.
Consider `CCCCCCCCCCCCCCCC(=O)N[C@@H](CCC(=O)NCCCC[C@H](NC(=O)[C@H](CCC(N)=O)NC(=O)[C@@H](NC(=O)[C@H](CO)NC(=O)[C@H](CC(C)C)NC(=O)[C@H](CC(=O)O)NC(=O)[C@H](CO)NC(=O)[C@@H](NC(=O)[C@H](Cc1ccccc1)NC(=O)[C@@H](NC(=O)CNC(=O)[C@H](CCC(=O)O)NC(=O)C(C)(C)NC(=O)[C@@H](N)Cc1ccc(O)cc1)[C@@H](C)O)[C@@H](C)O)[C@@H](C)CC)C(=O)N[C@@H](CC(=O)O)C(=O)N[C@@H](CCCCN)C(=O)N[C@@H](CCCNC(=N)N)C(=O)N[C@@H](C)C(=O)N[C@@H](C)C(=O)N[C@@H](CCC(N)=O)C(=O)N[C@@H](CC(C)C)C(=O)N[C@@H](Cc1ccccc1)C(=O)N[C@H](C(=O)N[C@@H](CCC(=O)O)C(=O)N[C@@H](Cc1c[nH]c2ccccc12)C(=O)N[C@@H](CC(C)C)C(=O)N[C@@H](CCCCN)C(=O)N[C@@H](CC(N)=O)C(=O)NCC(=O)NCC(=O)N1CCC[C@H]1C(=O)N[C@@H](CO)C(=O)N[C@@H](CO)C(=O)NCC(=O)N[C@@H](C)C(=O)N1CCC[C@H]1C(=O)N1CCC[C@H]1C(=O)N1CCC[C@H]1C(=O)N[C@@H](CO)C(N)=O)[C@@H](C)CC)C(=O)O` [SEQ ID NO: 55, Y-Aib-E-G-T-F-T-S-D-L-S-I-Q-K(yE-x53)-DKRAAQLFIEWLKNGGPSSGAPPPS-NH2] (H-Y[Aib]EGTFTSDLSIQK([γGlu-Palmitoyl])DKRAAQLFIEWLKNGGPSSGAPPPS-NH2), for which the pEC50 – broadly, the EC50 on a negative log10 scale, so that one unit is a factor of ten – is 10.79 in experiment [1], 10.81 in experiment [2] and 7.74 in experiment [3].
For the compound `CCCCCCCCCCCCCCCC(=O)N[C@@H](CCC(=O)NCCCC[C@H](NC(=O)[C@H](CCC(N)=O)NC(=O)[C@@H](NC(=O)[C@H](CO)NC(=O)[C@H](CC(C)C)NC(=O)[C@H](CC(=O)O)NC(=O)[C@H](CO)NC(=O)[C@@H](NC(=O)[C@H](Cc1ccccc1)NC(=O)[C@@H](NC(=O)CNC(=O)[C@H](CCC(N)=O)NC(=O)C(C)(C)NC(=O)[C@@H](N)Cc1ccc(O)cc1)[C@@H](C)O)[C@@H](C)O)[C@@H](C)CC)C(=O)N[C@@H](CCC(=O)O)C(=O)N[C@@H](CCCCN)C(=O)N[C@@H](CCCNC(=N)N)C(=O)N[C@@H](C)C(=O)N[C@@H](C)C(=O)NC(C)(C)C(=O)N[C@@H](Cc1ccc(O)cc1)C(=O)N[C@@H](Cc1ccccc1)C(=O)N[C@H](C(=O)N[C@@H](CCC(=O)O)C(=O)N[C@@H](Cc1c[nH]c2ccccc12)C(=O)N[C@@H](CC(C)C)C(=O)N[C@@H](CCCCN)C(=O)N[C@@H](CC(N)=O)C(=O)N[C@H](C(=O)NCC(=O)N1CCC[C@H]1C(=O)N[C@@H](CO)C(=O)N[C@@H](CO)C(=O)NCC(=O)N[C@@H](C)C(=O)N1CCC[C@H]1C(=O)N1CCC[C@H]1C(=O)N1CCC[C@H]1C(=O)N[C@@H](CO)C(N)=O)[C@@H](C)O)[C@@H](C)CC)C(=O)O` [SEQ ID NO: 23, Y-Aib-Q-G-T-F-T-S-D-L-S-I-Q-K(yE-x53)-E-K-R-A-A-Aib-Y-F-I-E-W-L-K-N-T-G-P-S-S-G-A-P-P-P-S-NH2] (H-Y[Aib]QGTFTSDLSIQK([γGlu-Palmitoyl])EKRAA[Aib]YFIEWLKNTGPSSGAPPPS-NH2), the pEC50 is 11.04 in experiment [1], 9.87 in experiment [2] and 9.51 in experiment [3].
Consider `CCCCCCCCCCCCCCCC(=O)N[C@@H](CCC(=O)NCCCC[C@H](NC(=O)[C@H](CCC(N)=O)NC(=O)[C@@H](NC(=O)[C@H](CO)NC(=O)[C@H](CC(C)C)NC(=O)[C@H](CC(=O)O)NC(=O)[C@H](CO)NC(=O)[C@@H](NC(=O)[C@H](Cc1ccccc1)NC(=O)[C@@H](NC(=O)CNC(=O)[C@H](CCC(N)=O)NC(=O)C(C)(C)NC(=O)[C@@H](N)Cc1ccc(O)cc1)[C@@H](C)O)[C@@H](C)O)[C@@H](C)CC)C(=O)N[C@@H](CC(=O)O)C(=O)N[C@@H](CO)C(=O)N[C@@H](CCCNC(=N)N)C(=O)N[C@@H](C)C(=O)N[C@@H](C)C(=O)N[C@@H](CCC(N)=O)C(=O)N[C@@H](CC(=O)O)C(=O)N[C@@H](Cc1ccccc1)C(=O)N[C@H](C(=O)N[C@@H](CCC(=O)O)C(=O)N[C@@H](Cc1c[nH]c2ccccc12)C(=O)N[C@@H](CC(C)C)C(=O)N[C@@H](CCCCN)C(=O)N[C@@H](CCCNC(=N)N)C(=O)NCC(=O)NCC(=O)N1CCC[C@H]1C(=O)N[C@@H](CO)C(=O)N[C@@H](CO)C(=O)NCC(=O)N[C@@H](C)C(=O)N1CCC[C@H]1C(=O)N1CCC[C@H]1C(=O)N1CCC[C@H]1C(=O)N[C@@H](CO)C(N)=O)[C@@H](C)CC)C(=O)O` [SEQ ID NO: 34, Y-Aib-Q-G-T-F-T-S-D-L-S-I-Q-K(yE-x53)-DSRAAQDFIEWLKRGGPSSGAPPPS-NH2] (H-Y[Aib]QGTFTSDLSIQK([γGlu-Palmitoyl])DSRAAQDFIEWLKRGGPSSGAPPPS-NH2), for which the negative logarithm of the EC50 (pEC50) in experiment [1] is 11.13; in experiment [2] it was 10.29; in experiment [3], 9.65.
Take `CCCCCCCCCCCCCCCC(=O)N[C@@H](CCC(=O)NCCCC[C@H](NC(=O)[C@H](CCC(N)=O)NC(=O)[C@@H](NC(=O)[C@H](CO)NC(=O)[C@H](CC(C)C)NC(=O)[C@H](CC(=O)O)NC(=O)[C@H](CO)NC(=O)[C@@H](NC(=O)[C@H](Cc1ccccc1)NC(=O)[C@@H](NC(=O)CNC(=O)[C@H](CCC(N)=O)NC(=O)C(C)(C)NC(=O)[C@@H](N)Cc1ccc(O)cc1)[C@@H](C)O)[C@@H](C)O)[C@@H](C)CC)C(=O)N[C@@H](CCC(=O)O)C(=O)N[C@@H](CCCCN)C(=O)N[C@@H](CCCNC(=N)N)C(=O)N[C@@H](Cc1ccc(O)cc1)C(=O)N[C@@H](C)C(=O)NC(C)(C)C(=O)N[C@@H](CCC(=O)O)C(=O)N[C@@H](Cc1ccccc1)C(=O)N[C@H](C(=O)N[C@@H](CCC(=O)O)C(=O)N[C@@H](Cc1c[nH]c2ccccc12)C(=O)N[C@@H](CC(C)C)C(=O)N[C@@H](CCCCN)C(=O)N[C@@H](CC(N)=O)C(=O)N[C@H](C(=O)NCC(=O)N1CCC[C@H]1C(=O)N[C@@H](CO)C(=O)N[C@@H](CO)C(=O)NCC(=O)N[C@@H](C)C(=O)N1CCC[C@H]1C(=O)N1CCC[C@H]1C(=O)N1CCC[C@H]1C(=O)N[C@@H](CO)C(N)=O)[C@@H](C)O)[C@@H](C)CC)C(=O)O` [SEQ ID NO: 13, Y-Aib-Q-G-T-F-T-S-D-L-S-I-Q-K(yE-x53)-E-K-R-Y-A-Aib-EFIEWLKNTGPSSGAPPPSN H2] (H-Y[Aib]QGTFTSDLSIQK([γGlu-Palmitoyl])EKRYA[Aib]EFIEWLKNTGPSSGAPPPS-NH2): the pEC50 in experiment [1] is 10.85; in experiment [2], 10.58; in experiment [3] it was 10.69.

The values are drawn from US20140213513A1 (Sanofi, priority 2012, published 2014).
